Several values for one entry are separate records, joined by “and”; a condition that tells them apart may be missing. Equal values may be shown once.
These molecules were tested on P. falciparum 3D7 growth, pLDH absorbance (assay: blood-stage malaria parasite growth potency – strain 3D7, dose response (AID 2305)).
In the case of `O=C(/C=C/c1ccc(Cl)c(Cl)c1)NC1CCC(CN2CCC(c3nc4ncccc4[nH]3)CC2)CC1` (stereo not given), the IC50 is reported as 1230 nM.
For `CC(C)(C)c1ccc(NC(=O)c2cccc(CN3CCCN(Cc4cccc(C#N)c4)CC3)c2)cc1`, the IC50 was 760 nM.
With `Nc1ncc(-c2ccc3nccc(-c4ccncc4)c3c2)cc1S(=O)(=O)N1CCOCC1` the IC50 was 870 nM.
Work on `CC(C)Oc1ccc(C=CC(=O)Nc2noc3ccccc23)cc1` yielded an IC50 of 290 nM.
In the case of `CCCN(CCC)CCCOc1ccc(C(=O)c2c(-c3ccc(OCCCN(CCC)CCC)cc3)oc3ccc(Cl)cc23)cc1`, the IC50 is reported as 340 nM.
Molecule `CC(C)(C)c1ccc(CNC(=O)COc2ccc(-c3nnc(-c4cccc([N+](=O)[O-])c4)o3)cc2[N+](=O)[O-])cc1` has an IC50 of 930 nM.
Molecule `Cc1nc2nc(N)nc(N)c2c(C)c1Cc1ccccc1` has an IC50 of 250 nM.
Molecule `c1cc(-c2cc3ccc(C4=NCCN4)cc3[nH]2)ccc1C1=NCCN1` has an IC50 of 220 nM.
Molecule `CCCCCNc1nc2nc(N)nc(N)c2nc1-c1ccccc1` has an IC50 of 950 nM.
`COc1cccc(Nc2nccc(-c3c(-c4cccc(NC(=O)c5c(F)cccc5F)c4)nn4ccccc34)n2)c1` showed an IC50 of 180 nM.
`COc1ccc(NC(=O)CCNc2cc(C)nc(NCc3ccccc3C)n2)cc1` gave an IC50 of 1070 nM.
In the case of `COc1cccc(NC(=O)Nc2ccc(-c3oc(C(=O)NCC(c4ccccc4)N(C)C)cc3-c3ccncc3)cc2)c1` (stereo not given), the IC50 is reported as 1830 nM.
Work on `O=C(/C=C/c1cccc(Br)c1)NCCCCCN1CCC(c2c[nH]c3ccccc23)CC1` yielded an IC50 of 630 nM.
In the case of `NC(=O)CN1CC=C(c2c[nH]c3ccc(Br)cc23)CC1`, the IC50 is reported as 1100 nM.
With `C=CCOc1ccc(Cc2cnc(N)nc2N)cc1CCC` the IC50 was 1020 nM.
`O=C(Nc1ccc(Cl)c(-c2nc3ccccc3[nH]2)c1)c1ccc(-c2ccc(Cl)cc2)o1` was tested, and the IC50 was 790 nM.
Work on `COc1ccc(CNC(=O)c2cnc3c(O)cccc3c2Nc2cccc(NC(=O)c3ccc(Cl)c(Cl)c3)c2)cc1` yielded an IC50 of 600 nM.
`O=c1[nH]c(NCCCCCN2CCC(c3c[nH]c4ccccc34)CC2)ncc1Cc1ccc(Cl)c(Cl)c1` showed an IC50 of 970 nM.
Work on `COc1ccc2nccc([C@@H](O)CN3CCC(NC(=O)c4ccc(Oc5ccccc5)cc4)CC3)c2c1` yielded an IC50 of 1380 nM.
With `Cc1noc(C)c1CN1Cc2ccccc2OC2(CCN(Cc3c[nH]c4cnccc34)CC2)C1` the IC50 was 1070 nM.
Molecule `CCc1cn(C)c2c(N3CCCC3=O)cc(C(=O)N[C@@H](Cc3ccccc3)[C@H](O)CNC(C)(C)c3cccc(C(F)(F)F)c3)cc12` has an IC50 of 110 nM.
`Cc1cccc(NC(=O)NC2CCN(CCCCCNC(=O)/C=C/c3ccc(Cl)c(Cl)c3)CC2)c1` gave an IC50 of 750 nM.
With `Nc1nc(N)c2c(Cc3ccc(Br)cc3)cccc2n1` the IC50 was 770 nM.
Molecule `CS(=O)(=O)Nc1ccc2[nH]cc(C3CCN(CC4CCC(NC(=O)/C=C/c5ccc(Cl)c(Cl)c5)CC4)CC3)c2c1` (stereo not given) has an IC50 of 850 nM.
`Cn1ccc2c3c(N)nc(N)nc3ccc21` gave an IC50 of 900 nM.
In the case of `Cc1nc2c(c(O)c1Cl)-c1ccc(Oc3cccc(C(F)(F)F)c3)cc1C2=O`, the IC50 is reported as 40 nM.
`O=C(NCCCCN1CCC(c2nc3ccccc3s2)CC1)c1cc2ccccc2[nH]1` gave an IC50 of 1020 nM.
In the case of `COc1ccc2c(NCCc3ccccc3)cc(-c3ccccc3)nc2c1`, the IC50 is reported as 990 nM.
With `CC(=O)C1(c2ccccc2)CCN(CCC2(c3ccc(Cl)c(Cl)c3)CN(C(=O)Nc3cc(F)cc(F)c3)CCO2)CC1` (stereo not given) the IC50 was 1480 nM.
`Cc1noc(C)c1-c1cccc(CNCc2cccc(-c3cccc(-c4nc5ccccc5[nH]4)c3)c2)c1` was tested, and the IC50 was 380 nM.
`CCCC1N=C(N)N=C(N)N1c1cccc([N+](=O)[O-])c1` (stereo not given) showed an IC50 of 760 nM.
Molecule `Cc1cc(NN=Cc2ccc(Cl)cc2)c2cccc(C)c2n1` has an IC50 of 720 nM.
`CN1CCc2cc(NC(=O)c3cc4ccccc4s3)cc(-c3ccccc3)c2CC1` was tested, and the IC50 was 890 nM.
With `CCCN(CCC)C(=S)N=Nc1c(O)[nH]c2ccccc12` the IC50 was 810 nM.
`Cc1cccc2[nH]c(=O)c([N+](=O)[O-])c(O)c12` was tested, and the IC50 was 910 nM.
`COc1cc2nc(N3CCC(CNC(=O)c4ccc(-c5cccc(C#N)c5)cc4)CC3)nc(N)c2cc1OC` gave an IC50 of 140 nM.
Work on `O=C(c1ccc(Br)o1)N1N=C(c2cccs2)CC1c1ccc(Br)cc1` (stereo not given) yielded an IC50 of 510 nM.
`COc1ccc(CCNCc2ccc3c(C)cc(N)nc3c2)cc1` showed an IC50 of 570 nM.
Molecule `Cc1cc(=O)c(-c2ccc(OCc3ccc(OC(F)(F)F)cc3)cc2)c(C)[nH]1` has an IC50 of 740 nM.
`CCCC[C@@H](C(=O)NCc1ccccc1C(F)(F)F)N1C(=O)CCC1C(=O)Nc1ccc([N+](=O)[O-])cc1` (stereo not given in full) showed an IC50 of 850 nM.
`CCNC(=O)Nc1cccc(-c2cccc(-c3nc4c(C)cccc4[nH]3)c2)c1` gave an IC50 of 1040 nM.
`CC(Cc1ccc(OCC(=O)NCC2CCN(CCc3cccc(Cl)c3)CC2)cc1)NCCc1cccc(Cl)c1` (stereo not given) showed an IC50 of 660 nM.
In the case of `CCNC(=O)CCc1cccc(Br)c1`, the IC50 is reported as 530 nM.
With `C(=C(c1cccs1)c1cccs1)c1ccc(CNC2CCN(Cc3ccccc3)CC2)cc1` the IC50 was 160 nM.
For `CCOC(=O)c1ccc(N=C2SC(=Cc3cc(Br)ccc3O)C(=O)N2C)cc1`, the IC50 was 1000 nM.
Molecule `c1ccc(Oc2ccc(Nc3ccnc(Nc4ccc5cn[nH]c5c4)n3)cc2)cc1` has an IC50 of 730 nM.
With `Cc1cccc2[nH]c(-c3ccc(-c4ccc(NC(=O)CN5CCN(C)CC5)cc4)cc3)nc12` the IC50 was 790 nM.
`CC(C)CCN1CCC(Oc2ccc(NC(=O)c3cccs3)cc2Cl)CC1` showed an IC50 of 340 nM.
`CS(=O)(=O)Nc1cccc(-c2cnc3[nH]cc(-c4cc(N)cc(C(=O)O)c4)c3c2)c1` showed an IC50 of 1080 nM.
Work on `Fc1ccc(Nc2ccnc3cc(I)ccc23)c(Cl)c1` yielded an IC50 of 1080 nM.
For `FC(F)(F)c1ccc2nc(-c3ccc(-c4ccc(CNCc5cnn(-c6ccccc6)n5)cc4)s3)[nH]c2c1`, the IC50 was 460 nM.
With `O=C(Nc1ccc(S(=O)(=O)N2CCCC2)cc1)c1cc(-c2cccnc2)nc2ccc(Cl)cc12` the IC50 was 300 nM.
For `O=C(C=Cc1ccc(Cl)c(Cl)c1)NCCCCCN1CCC(CCCNS(=O)(=O)c2cccc(C(F)(F)F)c2)CC1`, the IC50 was 480 nM.
With `CC(C)c1ccc(NC(=O)c2ccc(C(=O)NC3CCN(Cc4ccccc4)CC3)cc2)cc1` the IC50 was 980 nM.
With `CC(C)(C)COC(=O)c1ccc(NC(=O)N[C@@H](Cc2ccc(O)cc2)C(=O)NC2CCN(Cc3ccc(O)cc3)C2)cc1` (stereo not given in full) the IC50 was 670 nM.
`CCNc1cc(CC)nc(Nc2ccc(C)cc2)n1` showed an IC50 of 850 nM.
`CCCN(CCCCNC(=O)c1ccc(-c2cccnc2)cc1)C1CCc2c(O)cccc2C1` (stereo not given) was tested, and the IC50 was 1120 nM.
In the case of `COc1ccc2nccc([C@@H](O)CN3CCC(NC(=O)c4ccc(Cl)c([N+](=O)[O-])c4)CC3)c2c1`, the IC50 is reported as 950 nM.
Molecule `N[C@@H](Cc1cc(I)c(Oc2ccc(O)c(Cl)c2)c(I)c1)C(=O)O` has an IC50 of 990 nM.
Work on `CN1CCN(C(=O)CN2CCC3(CCC2=O)NC(=O)c2ccccc2O3)CC1` (stereo not given) yielded an IC50 of 210 nM.
`O=C(/C=C/c1ccc(Cl)c(Cl)c1)N1CCC(CN2CCC(c3c[nH]c4cc(C(F)(F)F)ccc34)CC2)CC1` gave an IC50 of 800 nM.
`CCOc1cc(C(C)C)ccc1C1CCN(CCCCNC(=O)c2ccc(NC(=O)c3ccc(Cl)cc3)cc2)CC1` showed an IC50 of 810 nM.
`O=C(Cn1c(CCc2cccc(F)c2F)nc(=O)c2ccccc21)N(Cc1ccc(-c2ccc(C(F)(F)F)cc2)cc1)C1CCN(C2=NCCS2)CC1` gave an IC50 of 1330 nM.
Work on `CCCCNC[C@@H](O)[C@H](Cc1ccccc1)NC(=O)c1cc2c3c(c1)c(CC)cn3CCS(=O)(=O)N2C` yielded an IC50 of 200 nM.
`Cc1noc(C)c1-c1cccc(CNCc2ccc(-c3ccc(-c4nc5ccc(F)cc5[nH]4)cc3)cc2)c1` was tested, and the IC50 was 210 nM.
In the case of `O=C(Nc1ccccc1)N(Cc1ccccc1-c1cccc(CNCc2ccc3c(c2)OCO3)c1)C1CCN(Cc2ccccc2)CC1`, the IC50 is reported as 110 nM.
Work on `COc1ccc(Cn2c(Nc3cccc(C(F)(F)F)c3)nc3ccc(C(=O)NCCN4CCCC4)cc32)cc1Cl` yielded an IC50 of 750 nM.
`O=C(Nc1cccc(F)c1)NC1CCN(CCCCCNC(=O)[C@@H]2C[C@H]2c2ccc(Cl)c(Cl)c2)CC1` gave an IC50 of 760 nM.
In the case of `Cc1cccc2[nH]c(-c3ccc(-c4ccc(CNCc5ccc(CN)cc5)cc4)cc3)nc12`, the IC50 is reported as 720 nM.
`COc1cc(C(=O)N2CCOC(CCN3CCC(c4ccc(Cl)cc4)CC3)(c3ccc(Cl)c(Cl)c3)C2)cc(OC)c1OC` (stereo not given) gave an IC50 of 180 nM.
With `Cc1cc(N2CCCC2)nc(Nc2ccc(NC(=O)C3CCCC3)cc2)n1` the IC50 was 1110 nM.
`O=C(Nc1cccc(C(F)(F)F)c1)Nc1nc2ccc([N+](=O)[O-])cc2s1` gave an IC50 of 690 nM.
`COc1cccc(CNCC(C)(C)c2nc(-c3ccc(Cl)c(O)c3)c(-c3ccncc3)[nH]2)c1` was tested, and the IC50 was 690 nM.
Work on `O=C(/C=C/c1cc(F)c(F)cc1F)N1CCC(CN2CCC(c3c[nH]c4ccccc34)CC2)CC1` yielded an IC50 of 1000 nM.
`CCNc1cc(C(=O)N[C@@H](Cc2ccccc2)[C@H](O)CNC2C3CC4CC(C3)CC2C4)cc(N2CCCCS2(=O)=O)c1` (stereo not given in full) showed an IC50 of 670 nM.
Work on `CCN1CCN(c2cc(C)c3cc(NC(=O)c4cccc(Cl)c4)ccc3n2)CC1` yielded an IC50 of 770 nM.
`CCc1ccc(CN2CCC(CNC(=O)c3cc(-c4cccc(Cl)c4)cs3)C2)cc1` (stereo not given) gave an IC50 of 1110 nM.
Molecule `Oc1cccc(Nc2ccnc3cc(-c4cc5ccccc5o4)ccc23)c1` has an IC50 of 760 nM.
For `CCN(CCO)CCCC(C)Nc1ccnc2cc(Cl)ccc12` (stereo not given), the IC50 was 760 nM.
Molecule `CN1CCN(CCCN(Cc2ccc(-c3ccc(CNCc4ccc5c(c4)OCO5)cc3)cc2)C(=O)Nc2ccccc2)CC1` has an IC50 of 710 nM.
`CN(C)Cc1c(O)ccc2oc(Cc3ccccc3)cc12` gave an IC50 of 910 nM.
In the case of `O=C(C=Cc1ccc([N+](=O)[O-])cc1)NC1CCC(CN2CCC(c3c[nH]c4ccccc34)CC2)CC1` (stereo not given), the IC50 is reported as 790 nM and 840 nM.
With `CC(C)(C)OC(=O)NCc1ccc(Nc2nnc(-c3ccc(OCC(=O)NCc4ccc(C(C)(C)C)cc4)c([N+](=O)[O-])c3)o2)cc1` the IC50 was 800 nM.
`CCc1ccc(C2CCN(CCCCNC(=O)c3ccc(NC(=O)c4ccc(Cl)cc4)cc3)CC2)c(OCC(=O)OC)c1` showed an IC50 of 1030 nM.
In the case of `CCCCSc1ccc(CNCCCCCCNCc2ccc(SCCCC)c3ccccc23)c2ccccc12`, the IC50 is reported as 630 nM.
In the case of `CCCN(CCC)C(=O)c1cc(C(=O)N[C@@H](Cc2ccccc2)[C@H](O)CNCc2cccc(OC)c2)cc(N2CCCCS2(=O)=O)c1`, the IC50 is reported as 550 nM.
Work on `Cc1ccc(Nc2nc(C)cc(Nc3cccc(NS(C)(=O)=O)c3)n2)cc1` yielded an IC50 of 920 nM.
`O=C(/C=C/c1ccc(Cl)c(Cl)c1)NC1CCN(CCNC(=O)c2cccc(Cl)c2)CC1` showed an IC50 of 550 nM.
In the case of `Nc1c2c(nc3ccc(C(=O)Nc4ccccc4)cc13)CCCC2`, the IC50 is reported as 710 nM.
In the case of `CCCCNCc1ccc(-c2nc(CN(CCCn3ccnc3)C(=O)C3COc4ccccc4O3)cs2)cc1` (stereo not given), the IC50 is reported as 890 nM.
`Oc1ccc2ccccc2c1CNCCC1CCCCC1` gave an IC50 of 170 nM.
With `CO/C(=C\C=C\c1cc2cc(Cl)c(Cl)cc2[nH]1)C(=O)NCCCN1CCN(C2CCCCC2)CC1` the IC50 was 1010 nM.
In the case of `O=C(Nc1ccc2c(c1)CNCC2)c1ccc(-c2ccc(Cl)cc2)cc1`, the IC50 is reported as 660 nM.
`COc1ccc2nccc([C@@H](O)CN3CCC(NCc4cc5c(Cl)cccc5[nH]4)CC3)c2c1` gave an IC50 of 160 nM.
`CCc1nc(N)nc(N)c1-c1ccc(F)cc1` gave an IC50 of 410 nM.

— PubChem BioAssay AID2305 (GlaxoSmithKline (GSK), 2010)
